Values of other authors in US11160745B2, “Methods and compositions for topical delivery for skin care” (priority 2014, dated 2021).
Like-named read-outs stand apart in the source and are kept apart here.

Assays:
chromaffin cells = conditions: tritiated noradrenaline/adrenaline, liquid scintillation counting
ternary SNARE complex = biological target: T1, ternary SNARE complex (Homo sapiens, UniProt Q16623); conditions: immunoblot with anti-syntaxin mAb
T1 construct: Chromaffin cells were prepared and further separated from erythrocytes and other impurities by centrifugation gradient; endogenous in cells; complex immunoprecipitated

wrinkles around the eyes = conditions: for Reduction of the depth of wrinkles: independent study; for Decrease in severity of wrinkles around the eyes: ONV emulsion containing 10% Argireline solution, twice a day

T1 sequence (Q16623 whole entry, one chain of several): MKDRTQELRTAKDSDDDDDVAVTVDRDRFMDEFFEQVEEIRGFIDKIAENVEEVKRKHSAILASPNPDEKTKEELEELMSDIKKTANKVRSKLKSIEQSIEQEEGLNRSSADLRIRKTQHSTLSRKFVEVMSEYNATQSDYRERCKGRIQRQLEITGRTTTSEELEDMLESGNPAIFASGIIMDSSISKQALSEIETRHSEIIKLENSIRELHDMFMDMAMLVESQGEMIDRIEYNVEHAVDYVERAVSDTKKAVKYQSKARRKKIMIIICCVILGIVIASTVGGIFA

Ac-EEMQRR-NH2 [Argireline, (6S,9S,12S,15S,18S,21 S)-21-Acetamido-1-amino-12-(3-amino-3-oxopropyl)-6-carbamoyl-18-(2-carboxyethyl)-9-(3-guanidinopropyl)-1-imino-15-(2-(methylthio)ethyl)-8,11,14,17,20-pentaoxo-2,7,10,13,16,19-hexaazatetracosan-24-oic acid]
Release of catecholamines (adrenaline and noradrenaline) (chromaffin cells): significant modulation of both neurotransmitters at nM concentrations | SNARE complex formation (ternary SNARE complex): modulates SNARE complex formation at concentrations in the mM range | Reduction of the depth of wrinkles (wrinkles around the eyes; after 15 days of treatment): up to 17% | Decrease in severity of wrinkles around the eyes (wrinkles around the eyes; after 15 days): up to 17% | Decrease in severity of wrinkles around the eyes (wrinkles around the eyes; after 30 days): up to 27% | Reduction of the depth of wrinkles (wrinkles around the eyes; following 30 days of treatment): up to 27%
